Source: patent US10028992B2, “Methods of treating muscular dystrophy” (BOARD OF REGENTS OF THE NEVADA SYSTEM OF HIGHER EDUCATION …, priority 2012, dated 2018)

System: α7 integrin promoter
Experiment: muscle cell-based assay: α7βgal+/− myoblasts/myotubes, LacZ reporter, β-galactosidase cleavage of FDG
Parameters: species or system mouse; Results in α7+/− β-galactosidase assay: scale not given here
Settings: Myoblasts
How it was run: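 Primary α7βgal+/− mouse myoblasts (LacZ knocked into α7 integrin exon 1, promoter retained), differentiated; promoter activity read as β-galactosidase conversion of non-fluorescent FDG to fluorescein. Hits followed by dose-response, western analysis and myostatin counterscreen.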

| SMILES | Results in α7+/− β-galactosidase assay (0.5 uM) | Results in α7+/− β-galactosidase assay (1 uM) | Results in α7+/− β-galactosidase assay (5 uM) | Results in α7+/− β-galactosidase assay (10 uM) | Results in α7+/− β-galactosidase assay (20 uM) | Results in α7+/− β-galactosidase assay (40 uM) |
| --- | --- | --- | --- | --- | --- | --- |
| CCn1c(=O)c2cc(C(=O)N(C)c3cc(C)ccc3OC)sc2c2ccccc21 [drawing 636] | 0.06384 | −0.07654 | −0.2273 | −0.2656 | −0.396 | −0.3923 |
| CCOC(=O)C1=C(NC(=O)c2ccc(OC)c(S(=O)(=O)N3CCCCC3C)c2)Nc2ccccc2N=C1CC (stereo not drawn) [drawing 637] | 0.1194 | 0.007377 | −0.06112 | −0.01618 | −0.4913 | −0.6556 |
| O=C(NCc1ccccc1)C(c1c(F)cccc1Cl)N(C(=O)c1csnn1)C1CC1 (stereo not drawn) [drawing 638] | 0.05089 | −0.04686 | −0.06939 | −0.1188 | 0.4333 | −0.4316 |
| Cc1[nH]c2ccc(F)cc2c1CCN(Cc1ccco1)/C(S)=N/C(C)(C)C [drawing 639] | 0.1665 | 0.002443 | −0.08261 | −0.1049 | −0.2055 | −0.2801 |
| c1ccc(-c2cc(-c3nc4ccccc4[nH]3)c3ccccc3n2)cc1 [drawing 640] | 0.2113 | 0.0679 | −0.00848 | −0.0409 | 0.08704 | −0.1752 |
| CCC(C)n1nc(O)cc1N (stereo not drawn) [drawing 641] | 0.2618 | 0.0875 | −0.07378 | −0.09102 | 0.1389 | 0.06802 |
| Cc1ccc(C(=O)N2CCN(S(=O)(=O)N3CCOCC3)CC2)cc1 [drawing 642] | 0.1086 | −0.02563 | 0.3985 | −0.06877 | −0.07784 | −0.1672 |
| Cc1cccc(NC(=O)CN(C)C(=O)c2ccc(-c3ccc(Cl)cc3)o2)c1 [drawing 643] | −0.0624 | −0.00739 | −0.04166 | −0.109 | 0.6807 | −0.2589 |
| Cc1ccccc1S(=O)(=O)N1C[C@H]2CON(C)[C@H]2C[C@H]1c1cccc(-c2ccccc2)c1 [drawing 644] | 0.06241 | 0.06141 | 0.04452 | 0.08987 | −0.2419 | −0.2934 |
| N#C/C(=C/c1ccc(N2CCOCC2)o1)C(=O)Nc1ccccc1 [drawing 645] | 0.06835 | 0.1707 | 0.1316 | 0.05082 | 0.07006 | 0.03748 |
| CCOc1ccccc1Nc1cc2n(c(=O)n1)CCc1cc(OC)c(OC)cc1-2 [drawing 646] | −0.02172 | 0.002645 | −0.2359 | −0.3859 | −0.7975 | −0.7954 |
| CCOc1ccccc1NC(=O)COC(=O)CNS(=O)(=O)c1ccc(C)cc1 [drawing 648] | 0.03233 | 0.05083 | −0.02764 | −0.06749 | −0.1666 | −0.1295 |
| Fc1ccc(-c2ccnc3nc(N4CCN(c5ccccc5)CC4)nn23)cc1 [drawing 649] | 0.1594 | 0.2225 | 0.1641 | 0.1229 | 0.02594 | 0.02675 |
| CCOc1cc2c3c(c1)C(C)=CC(C)(C)N3C(=O)C2=O [drawing 650] | 0.1703 | 0.1592 | −0.1933 | −0.4363 | −0.8277 | −0.8257 |
| COc1ccc2c(c1)/C(=C\c1cccc(/C=C3/C(=O)Nc4ccc(OC)cc43)n1)C(=O)N2 [drawing 651] | −0.2196 | −0.4455 | −0.825 | −0.8112 | −0.9441 | −0.9511 |
| C/C(=N\NC(=O)c1cc(C)oc1C)c1ccc2ccccc2c1 [drawing 652] | −0.1564 | −0.09115 | 0.2722 | −0.1575 | −0.3649 | −0.6275 |
| O=C1Nc2ccccc2/C1=C\c1cccn1-c1ccc(OC(F)(F)F)cc1 [drawing 653] | −0.1201 | 0.155 | 0.2721 | 0.07821 | 0.05267 | −0.1116 |
| NS(=O)(=O)c1ccc(NC(=O)CN2CCc3ccccc32)cc1 [drawing 654] | −0.2007 | −0.06684 | 0.3068 | 0.002758 | −0.1257 | −0.1195 |
| CC(=O)C1=C(C)Nc2ncnn2C1c1ccc(C)cc1 (stereo not drawn) [drawing 655] | −0.08387 | 0.003197 | 0.2805 | −0.01305 | −0.1533 | −0.247 |
| COc1ccc(OC)c(S(=O)(=O)Nc2c(NC3CCCCC3)c3ccccc3oc2=O)c1 [drawing 656] | −0.2127 | −0.1212 | 0.2955 | −0.031 | −0.2083 | −0.2716 |
| CC(=O)Nc1ccc(NC(=O)C/C(C)=N/NC(=O)COc2cc(C)c(Br)cc2Br)cc1 [drawing 657] | −0.2303 | −0.07096 | 0.03872 | −0.07468 | −0.3089 | −0.4449 |
| Cc1cccc(Cn2cnc3c(nnn3Cc3ccc(Cl)cc3)c2=O)c1 [drawing 658] | −0.04558 | 0.03537 | 0.1703 | −0.06567 | −0.2167 | −0.3491 |
